For data set [1], the system named is SKBR-3 human breast cancer cell line. The data set is described as follows: In vitro cytotoxicity, MTT test, SKBR-3. The following applies: SK-BR-3, 72 h, read-out: IC50 (concentration of drug necessary to inhibit cell growth by 50%). It counts as cell-based. As to the method: (§1) Four cell lines of human breast cancer were used.
(§2) 1) the test cell line is plated at a concentration of 3,000 cells per well, on a flat-bottomed, 96-well plate;
(§3) 2) 24 hours later, the cells are supplemented with the test solutions suitably diluted in culture medium;
(§4) This is possible because mitochondrial dehydrogenase is able to reduce the tetrazolium salts (yellow) into blue formazan crystals. The greater or lesser intensity of colour is assessed by spectrophotometry (Dezinot, F. et al., J. Immunol. Methods, 1986, 22 (89): 271-277).
Background: Tetrazolium dyes change colour on reduction, which living cells bring about.

Data set [2] deals with MDA-MB-231 human breast cancer cell line. The data set is described as follows: In vitro cytotoxicity, MTT test, MDA-MB-231. It counts as cell-based. Particulars: MDA-MB-231, 72 h, read-out: IC50 (concentration of drug necessary to inhibit cell growth by 50%). As to the method:
as §1, §2, §3, §4

In data set [3] the test system is human ovary adenocarcinoma cells, OVCAR-3 cells. The experiment in a line: Survival of nude mice after intraperitoneal implant of OVCAR-3 neoplastic cells. It counts as in vivo, immunodepressed nude mice (Athymic CD-1). Particulars: 3 intraperitoneal doses (days 6, 13, 20): 20 mg/kg Taxol or 125 mg/kg HYTAD; 5 animals per group. From the text: For this experiment, we used human ovary adenocarcinoma cells, OVCAR-3 cells, in immunodepressed nude mice belonging to the Athymic CD-1 species.
Each mouse was inoculated by the intraperitoneal route with 5×10^6 cancer cells.
The molecular weight of the HA used for synthesis of this new drug was 200,000 Da (see Example 7 for details of its preparation). Five animals were used for this drug too.
Treated animals: 10 animals were first inoculated with OVCAR-3 cells.
The survival curve was calculated from the date of intervention to the 92nd day after inoculation of the cancer cells into the peritoneum.

For data set [4], the system named is MCF-7 human breast cancer cell line. The data set is described as follows: In vitro cytotoxicity, MTT test, MCF-7. It counts as cell-based. Particulars: MCF7, 72 h, read-out: IC50 (concentration of drug necessary to inhibit cell growth by 50%). The method, then:
as §1, §2, §3, §4

The conditions of data set [5]: intravenous infusion of paclitaxel-Cremophor EL in spite of pre-medication; cited from earlier work.

Structures are written as SMILES. pIC50: −log10 of the molar value.

Regarding `CC(=O)O[C@H]1C(=O)[C@@]2(C)[C@H]([C@H](OC(=O)c3ccccc3)[C@]3(O)C[C@H](OC(=O)[C@H](O)[C@@H](NC(=O)c4ccccc4)c4ccccc4)C(C)=C1C3(C)C)[C@]1(OC(C)=O)CO[C@@H]1C[C@@H]2O` [Taxol ®, paclitaxel], the pIC50 was 9.64 in data set [1], 9.46 in data set [2] and 8.46 in data set [4]. Also, the “animals that had died on the 92nd day after intervention” value in data set [3] is “none”. In addition, the “patients who experience more or less severe adverse reactions” value in data set [5] is listed as “up to 40%”.

The record behind these values is patent publication US8034795B2, “Taxanes covalently bounded to hyaluronic acid or hyaluronic acid derivatives” (Fidia Farmaceutici S.p.A., priority 2002, dated 2011).
